From US7176183B2, “Methods for treating and preventing damage to mucosal tissue” (University of Southern California, priority 1999, dated 2007)
Values joined by “and” are separate entries in the source; they are usually repeats but may differ in a detail not shown here. Equal values may be shown once. “Also recorded” adds a separate entry of the source.

Tests used:
Female C57B1/6 mice = assay: Gastrointestinal mucositis induced by cyclophosphamide injection into mice, histological scoring; type: in vivo; parameters: key to Overall score: 0: No lesion; <10% Crypts distorted; 2: >10% Crypts distorted, no necrotic cells; 3: >10% Crypts distorted, occasional necrotic cell; 4: Same as 3 except more extensive; key to Epithelium score / Crypt Architecture score: 0: Normal; <10% Crypt distortion; 2: 10–50% Crypt distortion; 3: >50% Crypt distortion; settings: for Epithelium score / Crypt Architecture score / Overall score: AII(1–7) 100 μg/kg s.c., one line per animal
Protocol: Female C57B1/6 mice were given an intraperitoneal injection of cyclophosphamide at concentrations of 200 or 250 mg/kg. After 2 days, the mice began treatment with either AII(1–7) (100 μg/kg), or phosphate buffered saline, both of which were given subcutaneously. The baseline weight of the mice was determined, and the mice were observed daily for 7–14 days, after which the animals were necropsied. Samples from the intestines were taken at four levels, in that the intestine was cut transversely at four places along the intestinal tract, from which histological preparations were made and evaluated, in order to reduce bias due to site selection. The samples were fixed in formalin for histological evaluation of crypt distortion and architecture, as well as epithelial attenuation. The crypt is a part of the gastrointestinal tract where the mucosal glands reside. Crypt distortion is a measure of the amount of disruption to the tissue that occurs as a result of mucosal damage. The epithelium is the cell/mucosal lining to the gastrointestinal tract. Epithelial attenuation is a measure of the amount of destruction to the epithelial lining.
Histological scoring was performed in a blinded fashion. The scores on the accompanying table were given on the following scale: […]

[1] = tested on: patients with newly diagnosed breast cancer receiving doxorubicin and cyclophosphamide; assay: Phase I/II dose escalation study of AII(1–7) in chemotherapy patients: incidence of stomatitis (oral mucositis); type: in vivo; settings: for Stomatitis (incidents of stomatitis associated with chemotherapy): chemotherapy patients (doxorubicin/cyclophosphamide), subcutaneous treatment, AII(1-7) n = 14, filgrastim n = 5
Protocol: The Phase I/II study was a prospective, open-label, dose-escalation study comparing the effects of AII(1–7 (SEQ ID NO:4)) in patients with newly diagnosed breast cancer receiving doxorubicin 60 mg/m^2 and cyclophosphamide 600 mg/m^2 for at least 3 cycles of adjuvant chemotherapy following surgical tumor reduction. A filgrastim comparator arm was used to compare safety and response variables and to assess synergy of AII(1–7) with filgrastim (NEUPOGEN®, Amgen, Inc., Thousand Oaks, Calif.).
Patients who satisfied the inclusion/exclusion criteria received a once daily subcutaneous injection of the given AII(1–7) dose level for 7 days followed by a 1 week rest period prior to any chemotherapy (cycle 0) in the interval between tumor reduction and planned chemotherapy. Dose escalation within an individual patient was not permitted.
Following the rest period, a chemotherapy regimen containing doxorubicin 60 mg/m^2 and cyclophosphamide 600 mg/m^2 was initiated. AII(1–7) was administered for at least 10 days, or until the absolute neutrophil count (ANC)>1500/μL for 2 days, beginning two days after chemotherapy. Up to three chemotherapy cycles followed by AII(1–7) administration will be repeated every 21 days or as indicated by patient tolerance. Any patient that fails to achieve an ANC>1500/μL by day 15 (13 days of AII(1–7)) received a filgrastim rescue of 5.0 μg/kg/day until the ANC>1500/μL for 2 days.
During the conduct of the AII (1–7) clinical trial to examine the effect of subcutaneous injection of AII(1–7) on hematological recovery in new breast cancer patients receiving chemotherapy (doxorubicin/cyclophosphamide), adverse events that occurred were collected.
An adverse event (AE) was considered any unfavorable or unintended change in structure, function, signs, or symptoms temporally associated with the use of a medicinal product experienced by a person administered a pharmaceutical product, whether or not a causal relationship with the product has been established. During the conduct of this clinical trial, study personnel asked open-ended questions to obtain information about AEs at every visit. Signs and symptoms were graded by the Investigator using the WHO toxicity criteria. […] If there was stomatitis, it was graded on a four point scale as: […]

[2] = Effectiveness test of AII fragments (test not specified)
[3] = cyclophosphamide 200 mg/kg i.p., listed as A(1-7)
[4] = cyclophosphamide 250 mg/kg i.p., listed as A(1-7)

## Asp-Arg-Val-Tyr-Ile-His-Pro [AII(1–7)]
Female C57B1/6 mice; cyclophosphamide 200 mg/kg i.p.
  Epithelium score: 1 (Mild Attenuation (<10%))
Female C57B1/6 mice; [3]
  Crypt Architecture score: 0 and 1 (<10% Crypt distortion) (2×)
  Overall score: 0 and 1 (<10% Crypts distorted) (2×)
Female C57B1/6 mice; [4]
  Crypt Architecture score: 1 (<10% Crypt distortion) (2×) and 2 (10–50% Crypt distortion)
  Epithelium score: 0 and 1 (Mild Attenuation (<10%)) (2×)
  Overall score: 0 and 1 (<10% Crypts distorted) and 2 (>10% Crypts distorted, no necrotic cells)
Female C57B1/6 mice; versus saline
  Level of gastrointestinal mucositis by all histological scores: reduced
[1]; chemotherapy patients
  Reduction of the frequency of stomatitis relative to that observed with filgrastim treatment: 30%
[1]
  Stomatitis (incidents of stomatitis associated with chemotherapy): 40%
[1]; subcutaneous administration, chemotherapy patients
  Effect on stomatitis (oral mucositis) relative to control: reduced; also recorded: significantly decreased

## His-Pro-Phe (HPF) [AII(6–8)]
[2]
  Effectiveness: not to be effective

## Tyr-Ile-His-Pro-Phe (YIHPF) [AII(4–8)]
[2]
  Effectiveness: not to be effective; also recorded: ineffective

B1: filgrastim (protein, chains of the INN, looked up)
chain: MTPLGPASSLPQSFLLKCLEQVRKIQGDGAALQEKLCATYKLCHPEELVLLGHSLGIPWAPLSSCPSQALQLAGCLSQLHSGLFLYQGLLQALEGISPELGPTLDTLQLDVADFATTIWQQMEELGMAPALQPTQGAMPAFASAFQRRAGGVLVASHLQSFLEVSYRVLRHLAQP
notes: filgrastim (NEUPOGEN®, Amgen, Inc.), comparator arm
[1]
  Stomatitis (incidents of stomatitis associated with chemotherapy): 60%
